{"source": "BindingDB's records for doi:10.1016/j.ejmech.2016.06.026", "about": "(Czech Academy of Sciences, 2016)", "key": {"[1]": {"assay": "Inhibition of reverse transcriptase Y181C mutant in HIV-1 3B infected in human MT4 cells assessed as inhibition of viral replication after 5 days by cell titer glo based luciferase reporter gene assay"}, "[2]": {"assay": "Inhibition of HIV-1 3B reverse transcriptase K103N mutant infected in human MT4 cells assessed as inhibition of viral replication after 5 days by cell titer glo based luciferase reporter gene assay"}}}
{"smiles": "COc1cc(F)c(C(=O)c2ccnc(Nc3ccc(C#N)cc3)n2)c(F)c1", "values": [{"measurement": "EC50", "setting": "[1]", "result": "> 500", "unit": "nM"}, {"measurement": "EC50", "setting": "[2]", "result": 347, "unit": "nM"}]}
